Assay results published in article PMC12040169 (PLOS Biology, 2025).

Columns and labels:
[1] = tested on: T1, C. trachomatis L2/434/Bu expressing GFP (CTL2-GFP); assay: microbe, parasite or virus in culture; set-up: C. trachomatis total inclusion area by high-content imaging, normalised to DMSO; details: Chlamydia trachomatis, HeLa, 28.5 h; total inclusion area; read-out: % of control remaining
T1 construct: L2/434/Bu GFP intracellular growth in HeLa cells
How it was run: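 Screening measures GFP fluorescence from the reporter strain and resorufin fluorescence for host viability, with Hoechst-based imaging of fixed cells adding inclusion area, inclusion number and nuclei count per well.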

[2] = in vitro; set-up: Viability of infected HeLa host cells, resazurin conversion, bulk resorufin fluorescence relative to DMSO; details: human, hela cells; bulk resorufin, mean of 2
[3] = in vitro; details: human, hela cells, % viability
[4] = tested on: T2, CTL2-GFP (C. trachomatis L2/434/Bu, GFP-expressing); assay: microbe, parasite or virus in culture; set-up: Intracellular C. trachomatis growth in HeLa cells, bulk GFP fluorescence relative to DMSO; details: Chlamydia trachomatis, HeLa, 28.5 h; bulk GFP, mean of 2; read-out: % of control remaining
T2 construct: L2/434/Bu, GFP-expressing
Description: MICs were calculated as described above.

| SMILES | activity at 1 µM [1] [%] | activity at 5 µM [1] [%] | activity at 10 µM [1] [%] | viability at 28.5 h, 1 µM [2] [%] | viability at 28.5 h, 5 µM [2] [%] | viability at 28.5 h, 10 µM [2] [%] | viability at 28.5 h, 10 µM [3] [%] | activity at 1 µM [4] [%] | activity at 5 µM [4] [%] | activity at 10 µM [4] [%] |
| --- | --- | --- | --- | --- | --- | --- | --- | --- | --- | --- |
| Nc1ncc(-c2ccc(C(=O)N3CCOCC3)cc2)cc1C(=O)NCc1ccc(Cl)c(Cl)c1 [CBK158570] | 87.8 | 108 | 65.8 | 91.9 | 93.3 | 93.8 | 109 | 97.9 | 89.9 | 72 |
| CCc1nnc(NS(=O)(=O)c2ccc(NC(=O)COc3ccc(Cl)cc3Cl)cc2)s1 [CBK200050] | 99.2 | 67 | 37.8 | 104 | 96.7 | 98.4 | 108 | 112 | 48.5 | 22.1 |
| NC(=O)c1[nH]nc(C2OC(CO)C(O)C2O)c1O (stereo not shown) [CBK201236] | 23.4 | 16 | 13.6 | 92.8 | 92.1 | 93.8 | 95.1 | 15.5 | 10.1 | 9.69 |
| Nc1nc(F)nc2c1ncn2[C@H]1C[C@@H](O)[C@@H](CO)O1 [CBK201337] | 50.4 | 4.65 | 1.29 | 93.5 | 79.2 | 72.6 | 77.6 | 52.9 | 11.5 | 14.4 |
| Nc1ccc(C(=O)Nc2ccc(-c3nc4ccc(NC(=O)c5ccc(N)cc5)cc4[nH]3)cc2)cc1 [CBK261147] | 101 | 76.7 | 91.9 | 88.3 | 93.2 | 103 | 109 | 149 | 133 | 160 |
| C/C(=N\Nc1nnc2c(n1)[nH]c1ccccc12)c1ccccn1 [CBK262054] | 18.7 | 2.45 | 1.6 | 87.3 | 69.7 | 70.2 | 94.5 | 18 | 12.2 | 10.5 |
| CCc1nnc(NS(=O)(=O)c2ccc(N/C=C3\C(=O)N(c4ccc(C)cc4)N=C3C)cc2)s1 [CBK262395] | 116 | 36.9 | 35 | 96 | 101 | 91.7 | 100 | 87 | 17.9 | 18.6 |
| O=[N+]([O-])c1ccc2[nH]c3c(c2c1)CCCC3NC1CCN(CCc2ccccc2)CC1 (stereo not shown) [CBK262874] | 60.6 | 15.1 | 3.02 | 91.5 | 84.8 | 76.1 | 77.1 | 58.5 | 25.9 | 16.1 |
| O=C(N/N=C/c1ccc(Sc2cccc3cccnc23)o1)c1cccc(F)c1 [CBK263263] | 21 | 4.03 | 0.368 | 101 | 99.9 | 108 | 87.9 | 12 | 3.14 | 0 |
| Cc1cc(NS(=O)(=O)c2ccc(Nc3nc(-c4ccccn4)cs3)cc2)no1 [CBK263302B] | 76.5 | 93.3 | 56.4 | 90.8 | 93.6 | 99.8 | 93.1 | 105 | 88.6 | 49.5 |
